From paper PMC3211141 (Anesthesiology, 2011)
Read-outs that look alike come from different tables or passages of the source.

Columns and labels:
[1] = system: homomeric and heteromeric TASK channels; assay: Whole-cell recording, statements across all tested TASK channel constructs; format: cell-based
wild-type mice = assay: Electroencephalogram recording of bupivacaine-induced seizures, wild type mice; format: in vivo; conditions: control (wild type) mice, two lower bupivacaine doses, n=6
TASK−/− mice = format: in vivo; conditions: two lower bupivacaine doses, n=6
wild-type C57BL/6 mice = conditions: for seizure incidence (N=seizure/total) / seizure incidence (% of mice) / seizure duration (typical) / EC50 for induction of seizures: iv; for EC50 for induction of seizures: wild type mice, quantal dose-response
[2] = system: TASK-1−/−:TASK-3−/− double knockout mice; conditions: for EC50 for induction of seizures / seizure duration (typical): iv
[3] = target: TASK-1/TASK-3 heterodimeric channels (Rattus norvegicus, UniProt O54912+Q9ES08); format: cell-based; conditions: exemplar cell
Chain of TASK-1/TASK-3 heterodimeric channels (O54912 whole entry): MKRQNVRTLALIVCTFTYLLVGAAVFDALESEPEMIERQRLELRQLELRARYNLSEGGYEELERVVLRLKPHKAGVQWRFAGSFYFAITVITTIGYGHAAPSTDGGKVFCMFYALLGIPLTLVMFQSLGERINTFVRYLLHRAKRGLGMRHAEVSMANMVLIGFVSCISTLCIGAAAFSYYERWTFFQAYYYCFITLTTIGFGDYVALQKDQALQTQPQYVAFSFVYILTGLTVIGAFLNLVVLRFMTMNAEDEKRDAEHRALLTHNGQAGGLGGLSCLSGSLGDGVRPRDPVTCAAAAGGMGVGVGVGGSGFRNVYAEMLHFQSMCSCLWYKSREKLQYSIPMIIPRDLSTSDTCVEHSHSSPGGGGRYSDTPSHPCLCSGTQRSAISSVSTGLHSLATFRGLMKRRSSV
Chain of TASK-1/TASK-3 heterodimeric channels (Q9ES08 whole entry): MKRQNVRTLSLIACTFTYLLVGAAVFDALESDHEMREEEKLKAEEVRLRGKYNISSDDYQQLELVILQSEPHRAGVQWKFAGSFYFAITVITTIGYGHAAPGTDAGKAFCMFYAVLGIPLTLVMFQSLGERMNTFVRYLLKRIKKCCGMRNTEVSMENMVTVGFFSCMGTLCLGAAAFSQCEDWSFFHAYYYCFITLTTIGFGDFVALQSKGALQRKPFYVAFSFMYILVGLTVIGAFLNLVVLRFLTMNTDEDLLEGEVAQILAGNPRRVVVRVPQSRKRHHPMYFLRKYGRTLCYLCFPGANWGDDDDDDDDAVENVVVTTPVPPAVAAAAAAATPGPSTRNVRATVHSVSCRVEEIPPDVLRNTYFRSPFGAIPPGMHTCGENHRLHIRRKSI

[4] = C57BL/6, mouse, in vivo, 2.5 mg/kg
[5] = C57BL/6, mouse, in vivo, 3.75 mg/kg
[6] = C57BL/6, mouse, in vivo, 5 mg/kg
[7] = C57BL/6, mouse, in vivo, 6.25 mg/kg
[8] = C57BL/6, mouse, in vivo, 7.5 mg/kg
[9] = C57BL/6 background (TASK-1−/−:TASK-3−/− double knockout), mouse, in vivo
[10] = TASK−/− mice, quantal dose-response
[11] = C57BL/6, mouse, in vivo, 10 mg/kg

| Compound | seizure incidence (N=seizure/total) (wild-type C57BL/6 mice; [4]) | seizure incidence (N=seizure/total) (wild-type C57BL/6 mice; [6]) | seizure incidence (N=seizure/total) (wild-type C57BL/6 mice; [7]) | seizure incidence (N=seizure/total) (wild-type C57BL/6 mice; [8]) | EC50 for induction of seizures (wild-type C57BL/6 mice) | EC50 for induction of seizures [2, 10] | seizure duration (typical) (wild-type C57BL/6 mice; C57BL/6, mouse, in vivo) [s] | seizure incidence (N=seizure/total) (wild-type C57BL/6 mice; [11]) | seizure duration (typical) [2, 9] [s] | further results |
| --- | --- | --- | --- | --- | --- | --- | --- | --- | --- | --- |
| CCCCN1CCCCC1C(=O)Nc1c(C)cccc1C (centres unmarked) [bupivacaine] | 1/14 | 14/14 | 12/12 | 4/4 | 3.4 ± 0.1 mg/kg | 4.5 ± 0.1 mg/kg | – | – | – | fold more potent than lidocaine for TASK channel inhibition [1]: 3.1- to 4.4 fold; fold more potent than ropivacaine for TASK channel inhibition ([1]; across TASK channels): 1.4- to 1.7 fold; electroencephalogram peak frequency during seizures (wild-type mice): 3.4 ± 0.4 Hz; electroencephalogram peak frequency during seizures (TASK−/− mice): ~ 4.4 ± 0.2 Hz; fold more potent for induction of seizures than ropivacaine (wild-type C57BL/6 mice; C57BL/6, mouse, in vivo): ~ 1.4 fold; seizure incidence (% of mice) (wild-type C57BL/6 mice; [5]): ~ 71%; seizure duration (typical) (wild-type C57BL/6 mice; mouse, in vivo): significantly longer in duration; fold more potent for induction of seizures than ropivacaine [2, 9]: ~ 1.4 fold |
| CCN(CC)CC(=O)Nc1c(C)cccc1C [lidocaine] | – | 0/15 | – | – | – | – | < 25 | 4/15 | < 25 | seizure incidence (N=seizure/total) (wild-type C57BL/6 mice; C57BL/6, mouse, in vivo, 15 mg/kg): 10/15; seizure incidence (N=seizure/total) (wild-type C57BL/6 mice; C57BL/6, mouse, in vivo, 17.5 mg/kg): 13/15; EC50 for induction of seizures ([2]; mouse, in vivo): 17.3 ± 1.0 mg/kg |
| CCCN1CCCC[C@H]1C(=O)Nc1c(C)cccc1C [ropivacaine] | 0/14 | 10/14 | 14/14 | 11/11 | 4.7 ± 0.1 mg/kg | 6.0 ± 0.2 mg/kg | < 150 | 3/3 | < 150 | seizure incidence (N=seizure/total) (wild-type C57BL/6 mice; [5]): 0/14; seizure incidence (% of mice) (wild-type C57BL/6 mice; [6]): ~ 72%; seizure incidence (N=seizure/total) (wild-type C57BL/6 mice; C57BL/6, mouse, in vivo, 8.75 mg/kg): 9/9 |
| picrotoxin | – | – | – | – | ~ 1.0 mg/kg | ~ 1.0 mg/kg | – | – | – | effect on peak TASK-1/TASK-3 current ([3]; 100 μM): no discernible effect; decrease in peak TASK-1/TASK-3 current ([3]; 300 μM): < 10%; decrease in current amplitude (averaged, non-significant) ([1]; all tested TASK channel constructs, 50, 100 & 300 μM): ≤ 13% |
